Measured values reported in patent US6465612B1, “Synthetic peptides, conjugation reagents and methods” (The Regents of the University of California, priority 1998, dated 2002).
Starred links: 1 amine or outer side, 2 acyl side, 3 side chain; linkers in the order of their positions; H or OH if unused. Non-standard residues stand in square brackets, D forms with d. Residues, ends and D or L forms follow the SMILES beside them. No end group written: not given here. ξ: configuration not given here. *: point of attachment. X1 = CC(=O)N[C@@H]1[C@@H](O)[C@@H](O)[C@@H](C=NO[C@@H]2O[C@H](CO)[C@H](O)[C@H](O)[C@H]2O)O[C@@H]1*; X2 = CC(=O)N[C@H]1[C@@H](ON=C(C)C[C@H](N[*:1])C(=O)[*:2])O[C@H](CO)[C@H](O)[C@@H]1O; αGalNAc = CC(=O)N[C@@H]1[C@@H](O)[C@@H](O)[C@@H](CO)O[C@@H]1*; Thr(3ξ) = CC(O)[C@H](N)C(=O)O

Experiments:
[1] = tested on: E. coli D22; assay: Bacterial growth inhibition assays (Example IV); type: cell-based
Procedure: General methods: Galactose oxidase (EC 1.1.3.9) (450 units/mg) was purchased from Sigma. All chemical reagents were obtained from commercial suppliers and used without further purification. For flash chromatography, 230-400 mesh silica gel 60 (E. Merck No. 9385) was employed. Analytical thin layer chromatography (tlc) was conducted on Analtech Uniplate silica gel plates with detection by ceric ammonium molybdate and/or by UV light. Reversed-phase high pressure liquid chromatography (RP-HPLC) was performed on a Rainin Dynamax SD-200 system using Microsorb and Dynamax C18 reversed-phase columns (analytical: 4.6 mm ID×25 cm, 1 mL/min; semi-preparative: 10 mm ID×25 cm, 3 mL/min), and ultraviolet detection (230 nm) was performed with a Rainin Dynamax UV-1 detector. The E. coli strain D22 used in bacterial growth inhibition assays was obtained from the E. Coli Genetic Stock Center at Yale University.
Bacterial growth inhibition assays. […] Peptide concentrations were determined by measuring dry weight, and assuming 80% of that weight was peptide and the remainder water and salts. […] Growth was determined by measuring the absorbance at 595 nm on a BioRad 550 microplate reader. Percent inhibition was defined as ((Ao−Ax)/Ao)*100), where Ao was the absorbance of a control well lacking peptide and Ax was the absorbance of a well with peptide.

[2] = tested on: bacterial growth; details: cited from earlier work; for enhancement of bacteriostatic potency by the O-linked glycan (GalNAc residue) at Thr11: glycosylated vs unglycosylated peptide
[3] = tested on: E. coli D22; assay: growth inhibition assay (Example II); type: cell-based; details: for IC50: E. coli D22 in LB media with streptomycin, 24 h at rt, absorbance at 415 nm, read-out: IC50 in blocking bacterial growth
Procedure: 10. The growth inhibition assay was performed essentially as described by Bulet et al.^3 Sterile 96-well plates were used, with a final volume of 100 μL per well. This volume consisted of 90 μL of mid-logarithmnic phase culture of E. coli D22 in LB media containing streptomycin (50 μg/mL), added to 10 μL of serially diluted peptide (native drosocin (1), unglycosylated drosocin or neoglycopeptide 2) in water. Final peptide concentrations ranged from 10^−8 to 10^−5 M. Plates were incubated for 24 h at rt. Bacterial growth was determined by measuring the absorbance at 415 nm on a BioRad 550 microplate reader. Measurements were taken at t=0 h and t=24 h, and the change in absorbance (optical density) was recorded.

Row | Molecule | enhancement of bacteriostatic potency by the O-linked glycan (GalNAc residue) at Thr11 [2] | IC50 [3] | further results
1 | CC[C@H](C)[C@H](NC(=O)[C@@H]1CCCN1C(=O)[C@H](CCCNC(=N)N)NC(=O)[C@@H]1CCCN1C(=O)[C@H](Cc1c[nH]cn1)NC(=O)[C@H](CO)NC(=O)[C@@H](NC(=O)[C@@H]1CCCN1C(=O)[C@H](CCCNC(=N)N)NC(=O)[C@@H]1CCCN1C(=O)[C@H](CO)NC(=O)[C@H](Cc1ccc(O)cc1)NC(=O)[C@@H]1CCCN1C(=O)[C@H](CCCNC(=N)N)NC(=O)[C@@H]1CCCN1C(=O)[C@H](CCCCN)NC(=O)CN)[C@@H](C)O[C@H]1O[C@H](C=NO[C@@H]2O[C@H](CO)[C@H](O)[C@H](O)[C@H]2O)[C@H](O)[C@H](O)[C@H]1NC(C)=O)C(=O)N[C@@H](CCCNC(=N)N)C(=O)N[C@H](C(=O)O)C(C)C [Glycopeptide 5] (H-GKPRPYSPRPT(X1)SHPRPIRV-OH) | – | – | potency in blocking bacterial growth relative to unglycosylated drosocin ([1]; E. coli D22, 6 h at 25° C.): 3 to 4 fold
2 | CC[C@H](C)[C@H](NC(=O)[C@@H]1CCCN1C(=O)[C@H](CCCNC(=N)N)NC(=O)[C@@H]1CCCN1C(=O)[C@H](Cc1c[nH]cn1)NC(=O)[C@H](CO)NC(=O)[C@@H](NC(=O)[C@@H]1CCCN1C(=O)[C@H](CCCNC(=N)N)NC(=O)[C@@H]1CCCN1C(=O)[C@H](CO)NC(=O)[C@H](Cc1ccc(O)cc1)NC(=O)[C@@H]1CCCN1C(=O)[C@H](CCCNC(=N)N)NC(=O)[C@@H]1CCCN1C(=O)[C@H](CCCCN)NC(=O)CN)C(C)O[C@H]1O[C@H](CO)[C@H](O)[C@H](O)[C@H]1NC(C)=O)C(=O)N[C@@H](CCCNC(=N)N)C(=O)N[C@H](C(=O)O)C(C)C (stereo partly drawn) [native drosocin (1), H2N-Gly-Lys-Pro-Arg-Pro-Tyr-Ser-Pro-Arg-Pro-Thr(α-D-GalNAc)-Ser-His-Pro-Arg-Pro-Ile-Arg-Val-OH] (H-GKPRPYSPRP[Thr(3ξ)](αGalNAc)SHPRPIRV-OH) | approximately five-fold | 100 ± 20 nM | –
3 | CC[C@H](C)[C@H](NC(=O)[C@@H]1CCCN1C(=O)[C@H](CCCNC(=N)N)NC(=O)[C@@H]1CCCN1C(=O)[C@H](Cc1c[nH]cn1)NC(=O)[C@H](CO)NC(=O)[C@H](CC(C)=NO[C@H]1O[C@H](CO)[C@H](O)[C@H](O)[C@H]1NC(C)=O)NC(=O)[C@@H]1CCCN1C(=O)[C@H](CCCNC(=N)N)NC(=O)[C@@H]1CCCN1C(=O)[C@H](CO)NC(=O)[C@H](Cc1ccc(O)cc1)NC(=O)[C@@H]1CCCN1C(=O)[C@H](CCCNC(=N)N)NC(=O)[C@@H]1CCCN1C(=O)[C@H](CCCCN)NC(=O)CN)C(=O)N[C@@H](CCCNC(=N)N)C(=O)N[C@H](C(=O)O)C(C)C [neoglycopeptide 2] (H-GKPRPYSPRP[X2]SHPRPIRV-OH) | – | 160 ± 40 nM | potency in blocking bacterial growth relative to unglycosylated drosocin ([3]; E. coli D22, 24 h at rt): four-fold more potent
4 | GKPRPYSPRPTSHPRPIRV [drosocin] | five-fold | – | enhancement of potency in blocking bacterial growth by a single O-linked disaccharide (Gal-GalNAc) at Thr11 ([2]; depending on the target bacterial strain): 2-8 fold
5 | H-GKPRPYSPRPTSHPRPIRV-OH [unglycosylated drosocin] | – | 630 ± 50 nM | IC50 ([1]; E. coli D22 in LB media with streptomycin, 6 h at 25° C., absorbance at 595 nm, read-out: IC50 in blocking bacterial growth): 400 ± 50 nM
